Laboratory results: US20190336519A1, “APPLICATION OF ALBIFLORIN AS INDOLEAMINE 2,3-DIOXYGENASE (IDO) INHIBITOR” (priority 2017, published 2019)
Entries after “also recorded” stand apart in the source; their conditions may differ.

Columns and labels:
[1] = system: indoleamine 2,3-dioxygenase (IDO); assay: Western Blot of IDO in hippocampal tissue of chronic unpredictable mild stress (CUMS) rats; assay type: in vivo, rat; conditions: for IDO (folds relative to Blank group): CUMS rat hippocampal tissue, Mean±SE
Text: (§1) 1. […] Western Blot was used to detect the effects of albiflorin on IDO and MT1, and the results are found in FIG. 1:
(§2) Effects of albiflorin on indoleamine 2,3-dioxygenase (IDO) and melatonin receptors 1 (MT1) in the rat hippocampal tissue (Mean±SE)

[2] = system: melatonin receptors 1 (MT1); assay: Western Blot of MT1 in hippocampal tissue of chronic unpredictable mild stress (CUMS) rats; assay type: in vivo, rat; conditions: for MT1 (folds relative to Blank group): CUMS rat hippocampal tissue, Mean±SE
Text: as §1, §2

[3] = system: tryptophan metabolic pathway (kynurenine-quinolinic acid / serotonin-melatonin); assay: Tryptophan metabolites in hippocampus of CUMS rats; assay type: in vivo, rat; conditions: after 7 days of administration (7 mg/kg, 14 mg/kg)
[4] = system: LPS-induced mouse inflammatory depression-like behaviors; assay: Behavioral tests (Forced Swimming Test, Tail Suspension Test) in mice after modeling with LPS; assay type: in vivo; conditions: High dose group (14 mg/kg), gavage 7 days, 24 h after LPS
Description: (§3) The mice were randomly divided into 6 groups (16 for each group): Blank group, Model group, Fluoxetine hydrochloride (a positive drug) group (10 mg/kg), Low dose of albiflorin group (3.5 mg/kg), Medium dose of albiflorin group (7 mg/kg), and High dose of albiflorin group (14 mg/kg), and administered continuously by gavage for 7 days.
1. The behavioral tests: Forced Swimming Test (FST), Tail Suspension Test (TST) and Open Field Test (OFT)
(§4) On the 7th day after administration, LPS was injected intraperitoneally (0.83 mg/kg) for modeling. At 16 h after the injection, the Open Field Test (OFT) was carried out; at 24 h after the injection, the Forced Swimming Test (FST) and Tail Suspension Test (TST) were carried out. Thereafter, the blood was taken by enucleating eyeball, and centrifuged to collect the plasma. After the mice were sacrificed, the hippocampal tissues were taken out and quickly frozen in liquid nitrogen, and stored at −80° C.
(§5) The test data are shown in mean±SE, and originPro8.0 software was used for the statistical analysis of the data and plotting.

[5] = system: IL-6, TNF-α, CORT in mouse plasma; assay: Levels of inflammatory factors and CORT in mouse plasma after modeling with LPS; assay type: in vivo; conditions: LPS mice, gavage 7 days
Description: as §3, §4
(§6) 2. Determination of the effects of albiflorin and the positive drug fluoxetine on the concentrations of inflammatory factors IL-6, TNF-α, and PGE2, and glucocorticoid CORT in the mouse plasma and hippocampal tissue.
as §5

[6] = system: IL-6, TNF-α, CORT in mouse hippocampal tissue; assay: ELISA of inflammatory factors and CORT in mouse hippocampal tissue after modeling with LPS; assay type: in vivo; conditions: LPS mice, gavage 7 days
Description: as §3, §4, §6, §5
An ELISA assay was used to detect the levels of inflammatory factors IL-6, TNF-α and PGE2, and CORT in the mouse hippocampal tissue.

IDO = biological target: T1, IDO (Mus musculus, UniProt P28776); assay: Ratio of kynurenine/tryptophan (IDO activity) in mouse hippocampal tissue after modeling with LPS; assay type: in vivo; conditions: LPS mice, gavage 7 days
T1 construct: ratio of kynurenine/tryptophan (KYN/TrP) in the mouse hippocampal tissue; from tissue; host or cells: mouse hippocampal tissue (LPS model)
Description: as §3, §4
3. Determination of the effects of albiflorin and fluoxetine on expression of IDO in the mouse hippocampal tissue.
as §5
The activity of IDO in the hippocampus was expressed through the levels of KYN and TrP and the ratio of KYN/TrP.

[7] = CUMS rat, after 7 days of administration (7 mg/day, 14 mg/day), P<0.01
[8] = medium and high doses (7, 14 mg/kg)

T1 sequence (P28776 whole entry): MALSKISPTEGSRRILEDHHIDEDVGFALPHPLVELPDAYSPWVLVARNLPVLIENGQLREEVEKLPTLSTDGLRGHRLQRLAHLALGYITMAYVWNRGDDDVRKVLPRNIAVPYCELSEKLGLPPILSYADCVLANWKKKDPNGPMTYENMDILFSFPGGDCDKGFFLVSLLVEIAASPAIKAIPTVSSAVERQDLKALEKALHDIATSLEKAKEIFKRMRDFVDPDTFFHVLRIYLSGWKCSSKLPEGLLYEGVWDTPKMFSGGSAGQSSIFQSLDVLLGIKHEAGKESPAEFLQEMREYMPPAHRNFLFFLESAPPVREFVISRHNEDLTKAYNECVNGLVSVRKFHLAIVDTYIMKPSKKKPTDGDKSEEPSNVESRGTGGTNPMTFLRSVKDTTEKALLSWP

C[C@]12C[C@@H](O)[C@@H]3C[C@@]1(O[C@@H]1O[C@H](CO)[C@@H](O)[C@H](O)[C@H]1O)[C@]3(COC(=O)c1ccccc1)C(=O)O2 [Albiflorin, albiflorin]
IDO (folds relative to Blank group) ([1]; 3.5 mg/kg): 1.46 ± 0.014 folds relative to Blank group | IDO (folds relative to Blank group) ([1]; 7 mg/kg): 1.02 ± 0.010 folds relative to Blank group | IDO (folds relative to Blank group) ([1]; 14 mg/kg): 0.80 ± 0.008 folds relative to Blank group | IDO activity in the rat hippocampus [1, 7]: significantly inhibited | MT1 (folds relative to Blank group) ([2]; 3.5 mg/kg): 1.37 ± 0.013 folds relative to Blank group | MT1 (folds relative to Blank group) ([2]; 7 mg/kg): 1.39 ± 0.0014 folds relative to Blank group | MT1 (folds relative to Blank group) ([2]; 14 mg/kg): 1.39 ± 0.014 folds relative to Blank group | melatonin receptors 1 (MT1) in the rat hippocampus [2, 7]: increased significantly | ratio of kynurenine to tryptophan (KYN/TrP) ([3]; CUMS rat hippocampus): downregulated significantly | level of kynurenine in the rat hippocampus ([3]; CUMS rat, P<0.01): decreased significantly | level of melatonin in the hippocampus ([3]; CUMS rat, P<0.01): increased significantly | level of quinolinic acid in the rat hippocampus ([3]; CUMS rat, P<0.01): decreased significantly | level of serotonin in the hippocampus ([3]; CUMS rat, P<0.01): increased significantly | immobility time in the Tail Suspension Test compared with Model group [4]: significant difference | concentration of CORT in the mouse plasma [5]: substantially decrease | level of IL-6 in the mouse plasma [5, 8]: substantially decreased | level of TNF-α in the mouse plasma [5, 8]: substantially decreased | level of IL-6 in the mouse hippocampal tissue compared with Model group ([6]; High dose group (14 mg/kg)): significantly decreased | level of TNF-α in the mouse hippocampal tissue compared with Model group ([6]; High dose group (14 mg/kg)): significantly decreased | level of CORT in the hippocampal tissue [6]: substantially decreased | activity of IDO in the mouse hippocampal tissue (IDO; High dose (14 mg/kg), 14 mg/kg): significantly inhibited; also recorded: decrease | ratio of kynurenine/tryptophan (KYN/TrP) in the mouse hippocampal tissue compared with Model group (IDO; High dose group (14 mg/kg), P<0.05): decreased

CNCCC(Oc1ccc(C(F)(F)F)cc1)c1ccccc1 (stereo not shown) [Fluoxetine, fluoxetine, reference compound]
IDO (folds relative to Blank group) ([1]; 10 mg/kg): 1.29 ± 0.014 folds relative to Blank group | MT1 (folds relative to Blank group) ([2]; 10 mg/kg): 0.50 ± 0.005 folds relative to Blank group | LPS-induced activation/overexpression of IDO in the hippocampus compared with Model group (IDO; 10 mg/kg): failed to be corrected
